Measurements published in US20040009952A1, “TGF-beta gene overexpression preventing substances for the treatment of disorders connected with pathological overexpression of TGF-beta” (priority 1998, published 2004).

System: TGF-β1 mRNA
Test: Glucose- or PMA-induced TGF-β1 mRNA overexpression in porcine mesangial cells (RT-PCR, capillary electrophoresis)
Assay type: cell-based
Details: PMA; 10 μg/ml GAG; PMA alone 312; mean of 2 determinations
From the text: To assess the inhibitory activity of the GAG action on TGF-β1 overexpression an in vitro assay was established. In this assay structurally distinct GAGs were investigated for their activity to inhibit stimulated TGF-β1 mRNA overexpression in cultured target cell. For the development of glomerulosclerosis (e.g. diabetes) mesangial cells are one major pathological target. Mesangial cells were isolated, characterized and grown as decribed by Kolm et al. Am. J. Physiol. 270: F812-F821, 1996. Cells were stimulated with PMA in the presence and absence of a variety of 10 μg/ml of GAGs and related compounds. Cellular mRNA TGF-β1I levels were determined as decribed in Example II.
The separation and the precise quantification of the PCR products was performed on a Biofocus 3000 capillary electrophoresis system equipped with a laser-induced fluorescence detector (Bio-Rad, Munich, Germany) using an argon-ion laser. Excitation power was approximately 3.5 mW at =488 nm, and fluorescence emission was detected after passing through a 520 nm band pass filter. […] For on-column DNA fluorescence labeling, 1 μl Syber Green I (Molecular probes, Eugene, Or, USA) was addes per ml. […] The migration time for the PCR products was 5.2 min for TGF-β1 (161 bp) and 6.5 min for GAPDH (983 bp) All peak areas were calculated automatically using Biofocus Integration Software. […]

## chitosan-6-sulfate
  TGF-β1 mRNA: 116 % of control
